## N#CC(C#N)(COc1ccccc1Cl)NC(=O)c1ccc(OC(F)(F)F)cc1 [Compound 1.3, N-[2-(2-Chloro-phenoxy)-1,1-dicyano-ethyl]-4-trifluoromethoxy-benzamide]
  melting point: 154 to 155 °C

From patent publication US20080227863A1, “Organic Compounds” (Novartis AG, priority 2005, published 2008)
